# Results from US20210007347A1, “COMPOSITIONS AND METHODS FOR PRESERVING ORGAN TRANSPLANTS” (FIRSTSTRING RESEARCH, INC., priority 2019, published 2021).
# What was measured:
# Cx43 = test: Gap junction stabilization (Cx43 expression) in pre-treated endothelial cells; assay type: cell-based; conditions: ACT1 pretreatment in UW solution; 1 hour and 24 hours post reperfusion; FIG. 1C
# Description: (§1) Endothelial cells (EC) were pre-treated with University of Wisconsin (UW) solution only, or UW solution comprising 50 μM or 100 μM ACT1. Cold storage and reperfusion injury, pro-inflammatory cytokine release, and gap junction stabilization (Cx43 expression) were measured.
# Pig kidneys = test: Pig kidney ex vivo perfusion model
# Description: Pig kidneys were harvested and flushed with cold HTK solution, and then underwent 18 hours of cold static storage in HTK solution. At 18 hours, the kidneys were placed on a perfusion pump and perfused in cold HTK solution with or without 1 μM ACT1 (500 μL/mL). The control kidney in each pair was perfused with cold HTK and its pair was perfused with cold HTK supplemented with ACT1. While on pump, the resistance values were recorded and samples were collected of the perfusate solution every 30 minutes. At the end of 6 hours on the pump, kidneys were taken off of the pump and biopsies were collected and assessed for viability, function, and characteristics as described below.
# Tubular necrosis (in this study, a measure of cell death) was assessed by basic histology/pathology methods and subjective scoring. Overall epithelial cell death was determined using EpCam as the marker. The relative expression of Vcam and ICam were determined via RT-qPCR in biopsied tissue at the end of each perfusion pump run. LDH ([…] dehydrogenase) was measured as a marker of tissue injury and was quantified using a colorimetric assay.
# Aortic allografts = test: Aortic allograft transplantation, chronic rejection; assay type: in vivo, Balb/c donors, B6 recipients
# Description: Aortic allografts were stored for 6 hours or 24 hours, and assessed on Day 28 after transplantation for neointimal hyperplasia (a hallmark of chronic rejection) and T cell infiltration.
# Balb/c donor hearts = test: Allogenic heart transplantation model with static cold storage of donor hearts; assay type: in vivo, Balb/c donors, B6 recipients; conditions: donor hearts cold stored 6 h at 4° C. in UW solution with ACT1 vs UW alone
# IL-8 = test: Pro-inflammatory cytokine (IL-8) release from pre-treated endothelial cells; assay type: cell-based; conditions: ECs pre-treated with UW solution comprising 50 μM or 100 μM ACT1 vs UW solution only; FIG. 1B
# Description: as §1
# Endothelial cells (EC) = test: Cold storage and reperfusion injury of pre-treated endothelial cells, measured by electrical resistance; assay type: cell-based; conditions: ECs pre-treated with UW solution comprising 50 μM or 100 μM ACT1 vs UW solution only; 1, 3, 12 and 24 hours post-treatment; FIG. 1A
# Description: as §1
# [1] = biopsied tissue at end of perfusion with ACT1-augmented HTK solution vs HTK, FIG. 7
sequence,measurement,setting,value
RQPKIWFPNRRKPWKKRPRPDDLEI [ACT1],Cx43 expression,Cx43,increased
same,change in vascular renal resistance,"Pig kidneys; 18 h cold static storage in HTK, then 6 hours pump perfusion in cold HTK with 1 μM ACT1 vs without, matched kidney donor pairs #1 and #2, FIGS. 4A, 4B, 5A, 5B",prevents change in vascular renal resistance
same,"tubular necrosis (histology, subjective scoring)","Pig kidneys; 18 h cold static storage in HTK, then 6 hours pump perfusion in cold HTK with 1 μM ACT1 vs without, matched kidney donor pairs #1 and #2, FIGS. 4C, 5C",reduces tubular necrosis
same,endothelial cell activation as measured by Icam expression (RT-qPCR),Pig kidneys; [1],decreases endothelial cell activation
same,endothelial cell activation as measured by Vcam expression (RT-qPCR),Pig kidneys; [1],decreases endothelial cell activation
same,"LDH activity (marker of tissue injury, colorimetric assay)","Pig kidneys; cold HTK perfusion with 1 μM ACT1 vs without, paired marginal kidneys, FIG. 6",decreases LDH activity
same,percent intimal expansion,"Aortic allografts; 28 days post-treatment, including aortas stored for 24 hours, FIG. 3B",significantly reduced
same,neointimal hyperplasia following aorta transplantation,"Aortic allografts; aortic allografts stored 6 hours or 24 hours, assessed on Day 28 after transplantation, FIG. 3A",ameliorates
same,number of macrophages (MAC-3+ cells),Balb/c donor hearts; FIG. 2C,significantly reduced
same,number of neutrophils (GR1+ cells),Balb/c donor hearts; FIG. 2C,significantly reduced
same,IRI as measured by cardiac troponin I,Balb/c donor hearts; FIG. 2D,significantly reduced
same,IRI as measured by cumulative histology score,Balb/c donor hearts; FIG. 2D,significantly reduced
same,IL-8 release from the ECs,IL-8,significantly reduced
same,cold storage and reperfusion injury as measured by electrical resistance,Endothelial cells (EC),prevented cold storage and reperfusion injury
